Source: patent US10143691B2, “Pathogenic control of apoptosis” (CSIR, priority 2014, dated 2018)
“Also recorded” adds a separate entry of the source. Read-outs that look alike come from different tables or passages of the source.

Tests used:
Ghost(3) cells = assay type: cell-based
Procedure: Apoptosis was measured in Ghost(3) cells 30 hours post-infection or drug treatment using the NucView™ 488 Caspase3 Assay Kit (Biotium) in a 96 well format. Data was analysed in MATLAB using a probabilistic region method to measure cell attachment and expressed as percentage cell survival. […] An average of 3000 cells per condition were analysed with the exception of cells treated with Doxorubicin followed by HIV-infection (FIG. 3), cells transfected with lincRNAp21 overexpression constructs followed by Doxorubicin treatment, and cells transfected with full-length lincRNAp21, infected with HIV1 and treated with Nutlin3 (FIG. 25). These latter conditions ( ? ) yielded too few attached cells (<20) at 30 hours for similar analysis.
Apoptosis was measured in Ghost(3) cells 30 hours post-infection or drug treatment using the NucView™ 488 Caspase-3 Assay Kit (Biotium) in a 96 well format. Data was analysed in MATLAB using a probabilistic region method to measure cell attachment and expressed as percentage cell survival. […] An average of 3000 cells per condition were analysed with the exception of cells treated with Doxorubicin followed by HIV-infection (FIG. 27), cells transfected with lincRNA-p21 overexpression constructs followed by Doxorubicin treatment (FIG. 36), and cells transfected with full-length lincRNA-p21, infected with HIV-1 and treated with Nutlin3 (FIG. 45). These latter conditions ( ? ) yielded too few attached cells (<20) at 30 hours for similar analysis.

lincRNAp21 = assay: lincRNA-p21 expression by RNA FISH spot counts and quantitative RT-PCR; assay type: cell-based, human; settings: uninfected Ghost(3) cells, drug-treated, smFISH spot count and qRT-PCR
Procedure: RNA FISH on Ghost(3) cells was performed according to Raj, 2008 and on primary macrophages according to Schaffer, 2013. For both methods 48 20mer probes (Biosearch) targeted to human lincRNAp21 were synthesised baring a […] C6dT. The amino group was subsequently conjugated to the following NHSester dyes: ATTO565, ATTO647N (ATTOTEC) or Alexa Fluor 647 (Invitrogen). Briefly, oligonucleotide probes were ethanol precipitated and resuspended in 0.1 M sodium tetraborate (Sigma). Approximately 0.3 mg of the NHSester dye (ATTOTEC) was dissolved in dimethyl sulphoxide (Sigma). The dye solution was added to the probe solution and incubated overnight in the dark at 37° C. Following the conjugation reaction, the probes were ethanol precipitated overnight, and resuspended in 0.1 M triethyl ammonium (Sigma). Conjugated probes were separated and purified to enrich for dyeconjugated probes by reverse phase HPLC on a C18 column. […]
For each experiment, Ghost(3) cells or IPSO-derived primary macrophages were infected or treated with 500 nM Doxorubicin over time and total RNA was extracted from cells using TRIzol® (Life Technologies), treated with RQ1 RNase-free DNase (Promega) and reverse transcribed using SuperScript III Reverse Transcriptase (Life Technologies). Quantitative RTPCR was performed using Sso Fast EvaGreen™ supermix (BioRad) on a BioRad CFX96 real-time PCR detection system. […]

COc1cccc2c1C(=O)c1c(O)c3c(c(O)c1C2=O)C[C@@](O)(C(=O)CO)C[C@@H]3O[C@H]1C[C@H](N)[C@H](O)[C@H](C)O1 [Doxorubicin]
percentage cell survival (Ghost(3) cells; Ghost(3) cells infected with HIV-1 24 hours before the same duration of Doxorubicin treatment): 60% | apoptosis (Ghost(3) cells; Ghost(3) cells infected with HIV-1 24 hours prior to Doxorubicin treatment): do not undergo apoptosis | apoptosis (Ghost(3) cells; Ghost(3) cells that received Doxorubicin prior to HIV-1 infection): underwent apoptosis; also recorded: do undergo apoptosis | percentage cell survival (Ghost(3) cells; Ghost(3) cells, Doxorubicin only (lethal dose), no HIV): 32% | apoptosis (Ghost(3) cells; cells concurrently infected and treated with Maraviroc, Tenofovir or Raltegravir, Doxorubicin added 24 hours later): the cells underwent apoptosis | apoptosis (Ghost(3) cells; uninfected Ghost(3) cells, lethal dose of Doxorubicin (500 nM)): apoptosis at 48 hours; also recorded: by 24 hours, cells were apoptotic; also recorded: followed by apoptosis | lincRNA-p21 expression (lincRNAp21): enhanced; also recorded: significantly increases lincRNAp21 expression over time
